Laboratory results as given in ChEMBL document CHEMBL3244128, “Aromatic esters of nonquaternary carbon-4 piperidinols as analgesics” (J Med Chem, 1978).
Activity calls are given as the source filed them. The calls are words filed in the database; no cut-off is given here.

Columns and labels:
[1] = system: Mus musculus; assay: Analgesic activity in sc dosed mouse by hot-plate method; format: functional
[2] = system: Mus musculus; assay: Analgesic activity in sc dosed mouse by Nilsen method; format: functional
[3] = system: Mus musculus; assay: Analgesic activity in mouse at 20 mg/kg, sc by Nilsen method; format: functional, organism-based; set-up: dose 20 mg/kg
[4] = system: Mus musculus; assay: Toxicity in mouse at 20 mg/kg, sc; format: organism-based; set-up: dose 20 mg/kg, route subcutaneous; conditions: in vivo
[5] = system: Mus musculus; assay: Analgesic activity in mouse at 50 mg/kg, sc by hot-plate method; format: functional, organism-based; set-up: dose 50 mg/kg
[6] = system: Mus musculus; assay: Toxicity in mouse at 1.56 to 25 mg/kg, sc; format: organism-based; set-up: dose 1.56-25 mg/kg, route subcutaneous; conditions: in vivo
[7] = system: Mus musculus; assay: Toxicity in mouse at 54.5 mg/kg, sc; format: organism-based; set-up: dose 54.5 mg/kg, route subcutaneous; conditions: in vivo
[8] = system: Mus musculus; assay: Analgesic activity in mouse at 20 mg/kg, sc by hot-plate method; format: functional, organism-based; set-up: dose 20 mg/kg
[9] = target: Opioid receptor (Rattus norvegicus) (UniProt P33533+P34975+P33535); assay: Displacement of [3H]dihydromorphine from opiate receptor in rat brain homogenates; format: tissue-based
Sequence of Opioid receptor (Rattus norvegicus) (P33533 whole entry, looked up): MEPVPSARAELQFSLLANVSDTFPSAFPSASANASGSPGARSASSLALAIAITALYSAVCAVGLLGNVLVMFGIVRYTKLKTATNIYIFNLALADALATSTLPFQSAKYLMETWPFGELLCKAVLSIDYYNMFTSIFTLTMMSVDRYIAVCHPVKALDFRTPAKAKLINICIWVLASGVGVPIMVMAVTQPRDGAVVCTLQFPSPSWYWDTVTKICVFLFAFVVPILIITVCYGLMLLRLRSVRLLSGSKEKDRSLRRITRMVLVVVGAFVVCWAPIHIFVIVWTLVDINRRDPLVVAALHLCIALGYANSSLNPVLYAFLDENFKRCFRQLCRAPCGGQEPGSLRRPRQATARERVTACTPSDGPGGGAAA
Sequence of Opioid receptor (Rattus norvegicus) (P33535 whole entry, looked up): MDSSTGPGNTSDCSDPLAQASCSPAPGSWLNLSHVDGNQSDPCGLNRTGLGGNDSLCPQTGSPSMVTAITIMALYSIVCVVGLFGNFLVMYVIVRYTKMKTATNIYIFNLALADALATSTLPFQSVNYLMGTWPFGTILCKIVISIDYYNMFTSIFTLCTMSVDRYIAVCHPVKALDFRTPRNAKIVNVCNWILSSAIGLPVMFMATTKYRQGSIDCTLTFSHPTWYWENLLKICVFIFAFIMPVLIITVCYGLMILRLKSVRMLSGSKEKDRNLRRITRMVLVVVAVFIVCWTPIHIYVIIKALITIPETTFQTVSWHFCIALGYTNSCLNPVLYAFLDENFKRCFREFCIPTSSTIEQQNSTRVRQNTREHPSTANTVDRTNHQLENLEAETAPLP
Sequence of Opioid receptor (Rattus norvegicus) (P34975 whole entry, looked up): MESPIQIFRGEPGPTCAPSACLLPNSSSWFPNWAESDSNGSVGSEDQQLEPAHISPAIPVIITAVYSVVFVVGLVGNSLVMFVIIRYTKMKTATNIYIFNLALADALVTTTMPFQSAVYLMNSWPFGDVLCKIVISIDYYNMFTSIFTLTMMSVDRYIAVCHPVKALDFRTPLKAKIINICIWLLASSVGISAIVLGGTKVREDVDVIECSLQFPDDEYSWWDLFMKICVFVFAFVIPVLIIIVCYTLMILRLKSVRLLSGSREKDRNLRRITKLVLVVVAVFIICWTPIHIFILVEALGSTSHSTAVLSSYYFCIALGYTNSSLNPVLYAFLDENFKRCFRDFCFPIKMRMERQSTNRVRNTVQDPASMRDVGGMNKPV

[10] = system: Mus musculus; assay: Toxicity in mouse at 1.25 to 20 mg/kg, sc; format: organism-based; set-up: dose 1.25-20 mg/kg, route subcutaneous; conditions: in vivo
[11] = system: Mus musculus; assay: Toxicity in mouse at 5 to 40 mg/kg, sc; format: organism-based; set-up: dose 5-40 mg/kg, route subcutaneous; conditions: in vivo
[12] = system: Rhesus monkey; assay: Toxicity in monkey assessed as morphine-like physical dependence liability at 2 to 4 mg/kg; format: organism-based, Macaca mulatta; set-up: dose 2-4 mg/kg; conditions: in vivo
[13] = system: Rhesus monkey; assay: Toxicity in nonwithdrawn monkey assessed as nausea at 4 mg/kg; format: organism-based, Macaca mulatta; set-up: dose 4 mg/kg; conditions: in vivo
[14] = system: Rhesus monkey; assay: Toxicity in nonwithdrawn monkey assessed as nausea and piloerection at 8 mg/kg; format: organism-based, Macaca mulatta; set-up: dose 8 mg/kg; conditions: in vivo
[15] = system: Rhesus monkey; assay: Toxicity in nonwithdrawn monkey assessed as precipitation of abstinence sign at 8 mg/kg; format: organism-based, Macaca mulatta; set-up: dose 8 mg/kg; conditions: in vivo
[16] = system: Rhesus monkey; assay: Toxicity in nonwithdrawn monkey assessed as convulsion at 16 mg/kg up to 5 mins; format: organism-based, Macaca mulatta; set-up: dose 16 mg/kg; conditions: in vivo
[17] = system: Rhesus monkey; assay: Toxicity in nonwithdrawn monkey assessed as retching, vomiting and preconvulsive appearance at 16 mg/kg up to 5 mins; format: organism-based, Macaca mulatta; set-up: dose 16 mg/kg; conditions: in vivo

Compound | ED50 [1] | also measured
CN1CC[C@]23c4c5ccc(O)c4O[C@H]2[C@@H](O)C=C[C@H]3[C@H]1C5 [MORPHINE] | 1.2 mg/kg | ED50 [2]: 0.8 mg/kg
CCOC(=O)[C@H]1CN(C)CC[C@@H]1OC(=O)c1ccc(OC)c(OC)c1 (relative stereo) | 11.8 mg/kg | 
COc1cc(C(=O)OC2CCN(C)CC2)cc(OC)c1OC | 15.4 mg/kg | 
COc1cc(C(=O)OC2CCN(C)CC2)ccc1C | 11.9 mg/kg | 
COc1cccc(OC)c1C(=O)OC1CCN(C)CC1 | 73.8 mg/kg | 
CN1CCC(OC(=O)/C=C/c2ccccc2)CC1 | 16.2 mg/kg | 
CN1CCC(OC(=O)c2ccc(F)cc2)CC1 | 11.5 mg/kg | 
Cc1cc(C)c(C(=O)OC2CCN(C)CC2)cc1C | 20 mg/kg | 
COc1cccc(C(=O)OC2CCN(C)CC2)c1OC | 8.9 mg/kg | ED50 [2]: 19.6 mg/kg
Cc1cccc(C(=O)OC2CCN(C)CC2)c1 | inactive | 
CCOC(=O)[C@@H]1CN(C)CC[C@@H]1OC(=O)c1ccc(OC)c(OC)c1 (relative stereo) | 4 mg/kg | ED50 [3]: Active; Activity [4]: Toxic
CN1CCC(OC(=O)c2cccc(O)c2)CC1 | 16.6 mg/kg | 
CN1CCC(OC(=O)c2cc(I)cc(I)c2I)CC1 | inactive | 
CN1CCC(OC(=O)c2ccccc2CCc2ccccc2)CC1 |  | ED50 [5]: Active
CC(C(=O)OC1CCN(C)CC1)c1ccccc1 (stereo unspecified) | 25.4 mg/kg | 
COc1ccc2c3c1O[C@H]1[C@@H](O)C=C[C@H]4[C@@H](C2)N(C)CC[C@@]341 [CODEINE] | 7.5 mg/kg | ED50 [2]: 4.5 mg/kg
CN1CCC(OC(=O)C23CC4CC(CC(C4)C2)C3)CC1 | 15.9 mg/kg | 
CN1CCC(OC(=O)C2c3ccccc3-c3ccccc32)CC1 | inactive | 
CN1CCC(OC(=O)c2ccccc2)CC1 | 9.6 mg/kg | 
COc1ccccc1C(=O)OC1CCN(C)CC1 | 10.6 mg/kg | 
COc1cccc(C(=O)OC2CCN(C)CC2)c1 | 6.1 mg/kg | Activity [6]: Non-toxic; Activity [7]: Non-toxic
Cc1cc(C)cc(C(=O)OC2CCN(C)CC2)c1 | 24.4 mg/kg | 
Cc1cc(C)c(C(=O)OC2CCN(CCc3ccccc3)CC2)c(C)c1 | 37 mg/kg | 
CCOc1ccccc1C(=O)OC1CCN(C)CC1 |  | Analgesic activity (active/inactive) [8]: Active

Compound | ED50 [1] | also measured
Cc1ccc(C)c(C(=O)OC2CCN(C)CC2)c1 | 12.5 mg/kg | 
CN1CCC(OC(=O)c2cccc(F)c2)CC1 | 15.1 mg/kg | 
CN1CCC(OC(=O)c2ccc(Cl)c(Cl)c2)CC1 | 27.1 mg/kg | 
COc1ccc(C(=O)O[C@H]2CCN(C)C[C@H]2C)cc1OC (relative stereo) |  | Analgesic activity (active/inactive) [8]: Active; K [9]: > 100 µM
Cc1[nH]c(C)c(C(=O)OC2CCN(C)CC2)c1C | 4.9 mg/kg | ED50 [2]: 7.1 mg/kg
Cc1cc(C)c(C(=O)OC2CCN(C)CC2)c(C)c1 | 8.3 mg/kg | ED50 [2]: 46 mg/kg
COc1ccc(C(=O)OC2CCN(C)CC2)cc1OC | 3.9 mg/kg | ED50 [2]: 13.1 mg/kg; Activity [6]: Non-toxic; Activity [7]: Non-toxic; Activity [10]: Non-toxic; Activity [11]: Non-toxic; Activity [12]: Non-toxic; Activity [13]: Toxic; Activity [14]: Toxic; Activity [15]: Non-toxic; Activity [16]: Toxic; Activity [17]: Toxic
CN1CCC(OC(=O)c2ccccc2F)CC1 | 10.6 mg/kg | 
COc1cc(OC)cc(C(=O)OC2CCN(C)CC2)c1 | 9.3 mg/kg | 
Cc1cccc(C)c1C(=O)OC1CCN(C)CC1 | 15.2 mg/kg | 
COc1ccc(C(=O)O[C@H]2CCN(C)C[C@@H]2C)cc1OC | 8.3 mg/kg | K [9]: > 100 µM
CN1CCC(OC(=O)c2ccccc2Oc2ccccc2)CC1 |  | Analgesic activity (active/inactive) [8]: Active
Cc1ccccc1C(=O)OC1CCN(C)CC1 | 8.9 mg/kg | 
CCC(=O)OC1CCN(C)CC1 | 20.2 mg/kg | 
CN1CCC(OC(=O)Cc2ccccc2)CC1 | inactive | 
CN1CCC(OC(=O)c2ccc(C(C)(C)C)cc2)CC1 | 23.3 mg/kg | 
Cc1ccc(C(=O)OC2CCN(C)CC2)cc1C |  | Analgesic activity (active/inactive) [8]: Active
COc1ccc(CCC(=O)OC2CCN(C)CC2)cc1OC | 30.7 mg/kg | ED50 [2]: 32 mg/kg
Cc1ccc(C(=O)OC2CCN(C)CC2)cc1 | 18.2 mg/kg | 
COc1cc(OC)c(C(=O)OC2CCN(C)CC2)c(OC)c1 | 11.6 mg/kg | 
CN1CCC(OC(=O)CCCc2ccccc2)CC1 | inactive | 
CN1CCC(OC(=O)c2ccc3c(c2)OCO3)CC1 | 7.3 mg/kg | 
COc1ccc(C(=O)OC2CCN(C)CC2)cc1 | 10.5 mg/kg | 
Cc1ccc(C(=O)OC2CCN(C)CC2)cc1F | 13.9 mg/kg | 
